Laboratory results from article PMC9062502 (RSC Advances, 2019).

What was measured:
[1] = partition coefficient; ref https://pubchem.ncbi.nlm.nih.gov/compound/; cited from earlier work
[2] = biological target: xanthine oxidase (Bos taurus, UniProt P80457); test: Fluorescence-quenching binding to xanthine oxidase; details: for Affinity n (number of binding sites per enzyme molecule): double-logarithm formula; for Affinity n (number of binding sites per enzyme molecule) / Affinity K sv (dynamic quenching constant): 25 °C; for Affinity K sv (dynamic quenching constant): xanthine oxidase 1.0 μmol L^−1 in PBS, λex 280 nm, emission 335 nm; for Quenching of xanthine oxidase fluorescence (in words): no binding constant value
Chain of xanthine oxidase (P80457 2-1332): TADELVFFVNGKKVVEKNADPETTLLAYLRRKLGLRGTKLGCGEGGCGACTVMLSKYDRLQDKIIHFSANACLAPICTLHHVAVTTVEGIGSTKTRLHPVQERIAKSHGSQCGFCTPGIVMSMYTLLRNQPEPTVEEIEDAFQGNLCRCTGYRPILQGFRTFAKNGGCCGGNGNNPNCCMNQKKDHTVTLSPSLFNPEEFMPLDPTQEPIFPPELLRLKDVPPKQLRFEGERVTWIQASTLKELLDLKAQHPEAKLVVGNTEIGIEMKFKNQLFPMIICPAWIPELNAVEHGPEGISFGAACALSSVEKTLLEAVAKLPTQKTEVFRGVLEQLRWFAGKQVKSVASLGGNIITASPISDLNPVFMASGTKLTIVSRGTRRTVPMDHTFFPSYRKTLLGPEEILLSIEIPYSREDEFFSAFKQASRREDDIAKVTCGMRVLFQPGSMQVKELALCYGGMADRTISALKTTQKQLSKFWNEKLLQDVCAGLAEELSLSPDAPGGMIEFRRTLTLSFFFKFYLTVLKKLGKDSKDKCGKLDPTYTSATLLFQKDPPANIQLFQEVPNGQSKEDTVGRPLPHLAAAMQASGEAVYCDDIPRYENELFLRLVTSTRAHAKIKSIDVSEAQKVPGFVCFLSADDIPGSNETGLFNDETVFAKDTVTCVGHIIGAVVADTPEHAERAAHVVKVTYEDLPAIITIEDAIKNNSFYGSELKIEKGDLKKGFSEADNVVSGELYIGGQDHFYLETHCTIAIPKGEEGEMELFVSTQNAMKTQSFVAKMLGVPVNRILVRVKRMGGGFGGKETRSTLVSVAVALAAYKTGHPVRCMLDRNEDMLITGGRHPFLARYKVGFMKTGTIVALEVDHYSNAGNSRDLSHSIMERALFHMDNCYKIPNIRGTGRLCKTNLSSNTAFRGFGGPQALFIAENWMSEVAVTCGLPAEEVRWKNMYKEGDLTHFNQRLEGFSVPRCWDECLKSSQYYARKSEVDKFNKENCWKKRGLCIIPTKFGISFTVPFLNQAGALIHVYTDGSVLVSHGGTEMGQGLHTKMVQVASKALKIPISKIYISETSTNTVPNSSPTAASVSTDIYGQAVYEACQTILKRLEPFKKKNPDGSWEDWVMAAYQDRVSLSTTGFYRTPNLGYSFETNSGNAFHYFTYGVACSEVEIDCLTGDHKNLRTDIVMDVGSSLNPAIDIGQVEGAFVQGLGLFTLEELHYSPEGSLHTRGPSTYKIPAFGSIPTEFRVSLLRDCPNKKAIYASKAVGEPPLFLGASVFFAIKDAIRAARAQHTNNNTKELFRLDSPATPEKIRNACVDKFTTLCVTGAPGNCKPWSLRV

| SMILES | X log P3 [1] | Affinity n (number of binding sites per enzyme molecule) [2] | Affinity K sv (dynamic quenching constant) [2] | Fold increase of affinity for xanthine oxidase after glycosylation ([2]; aglycone named, 3,7-glycosylation of kaempferol, 3-glycosylation of quercetin, 7-glycosylation of naringenin) | Fold higher affinity for xanthine oxidase than the C2=C3 unsaturated counterpart ([2]; dihydromyricetin versus myricetin, naringenin versus apigenin) | Quenching of xanthine oxidase fluorescence (in words) [2] |
| --- | --- | --- | --- | --- | --- | --- |
| C[C@@H]1O[C@@H](Oc2cc(O)c3c(=O)c(O[C@@H]4O[C@@H](C)[C@H](O)[C@@H](O)[C@H]4O)c(-c4ccc(O)cc4)oc3c2)[C@H](O)[C@H](O)[C@H]1O [Kaempferitrin] | −0.1 |  |  |  |  |  |
| O=c1cc(-c2ccccc2)oc2cc(O)cc(O)c12 [Chrysin] | 2.1 | 0.6025 | 0.0195 10^6 |  |  |  |
| O=c1c(-c2ccc(O)cc2)coc2c([C@@H]3O[C@H](CO)[C@@H](O)[C@H](O)[C@H]3O)c(O)ccc12 [Puerarin] | 0.0 | 1.1801 | 0.0290 10^6 |  |  |  |
| O=C(O)[C@H]1O[C@@H](Oc2cc3oc(-c4ccccc4)cc(=O)c3c(O)c2O)[C@H](O)[C@@H](O)[C@@H]1O [Baicalin] | 1.1 | 1.8782 | 0.3668 10^6 |  |  |  |
| C[C@@H]1O[C@@H](OC[C@H]2O[C@@H](Oc3c(-c4ccc(O)c(O)c4)oc4cc(O)cc(O)c4c3=O)[C@H](O)[C@@H](O)[C@@H]2O)[C@H](O)[C@H](O)[C@H]1O [Rutin] | −1.3 | 1.2904 | 0.0532 10^6 |  |  |  |
| COc1ccc(-c2cc(=O)c3c(OC)c(OC)c(OC)c(OC)c3o2)cc1OC [Nobiletin] | 3.0 | 2.8371 | 0.9637 10^6 |  |  |  |
| COc1c(O)cc2occ(-c3ccc(O)cc3)c(=O)c2c1O [Tectorigenin] | 2.6 | 0.6283 | 0.0644 10^6 |  |  |  |
| O=C(O[C@@H]1Cc2c(O)cc(O)cc2O[C@@H]1c1cc(O)c(O)c(O)c1)c1cc(O)c(O)c(O)c1 [EGCG (2,3-cis), (−)-epigallocatechin gallate] |  | 1.2461 | 0.0226 10^6 |  |  |  |
| O=C1C[C@@H](c2ccc(O)cc2)Oc2cc(O)cc(O)c21 [Naringenin] | 2.4 | 1.2510 | 0.0568 10^6 | 73.3 times | 4676 times |  |
| COc1c(O)cc2oc(-c3ccc(O)cc3)cc(=O)c2c1O [Hispidulin] | 1.7 | 1.2571 | 0.0989 10^6 |  |  |  |
| O=c1cc(-c2ccc(O)c(O)c2)oc2cc(O)cc(O)c12 [Luteolin] | 1.4 | 1.3087 | 0.0926 10^6 |  |  |  |
| C[C@@H]1O[C@@H](O[C@H]2[C@H](Oc3cc(O)c4c(c3)O[C@H](c3ccc(O)cc3)CC4=O)O[C@H](CO)[C@@H](O)[C@@H]2O)[C@H](O)[C@H](O)[C@H]1O [Naringin] | −0.5 | 1.6838 | 0.0846 10^6 |  |  |  |
| O=c1c(O)c(-c2ccc(O)cc2)oc2cc(O)cc(O)c12 [Kaempferol] | 1.9 | 1.0535 | 0.0225 10^6 |  |  |  |
| O=c1c(O)c(-c2ccc(O)c(O)c2)oc2cc(O)ccc12 [Fisetin] | 2.0 | 1.3663 | 0.0729 10^6 |  |  |  |
| O=c1c(O)c(-c2cc(O)c(O)c(O)c2)oc2cc(O)cc(O)c12 [Myricetin] | 1.2 | 1.0764 | 0.0294 10^6 |  |  |  |
| COc1ccc(-c2cc(=O)c3c(OC)c(OC)c(OC)c(OC)c3o2)cc1 [Tangeretin] | 3.0 | 1.0022 | 0.1498 10^6 |  |  |  |
| O=c1cc(-c2ccccc2)oc2ccccc12 [Flavone] | 3.6 | 1.3695 | 0.0552 10^6 |  |  |  |
| O=c1c(-c2ccc(O)cc2)coc2cc(O)ccc12 [Daidzein] |  | 1.2554 | 0.0230 10^6 |  |  |  |
| O=c1cc(-c2ccccc2)oc2cc(O)c(O)c(O)c12 [Baicalein] | 1.7 | 1.5312 | 0.1981 10^6 |  |  |  |
| O=c1c(O)c(-c2ccccc2)oc2cc(O)cc(O)c12 [Galangin] | 2.3 | 0.9038 | 0.0276 10^6 |  |  |  |
| Oc1cc(O)c2c(c1)O[C@H](c1ccc(O)c(O)c1)[C@H](O)C2 [EC (2,3-cis), epicatechin] |  |  |  |  |  | not able to quench the fluorescence |
| Oc1cc(O)c2c(c1)O[C@@H](c1cc(O)c(O)c(O)c1)[C@H](O)C2 [GC (2,3-trans), (−)-gallocatechin] |  |  |  |  |  | not able to quench the fluorescence |
| O=c1cc(-c2ccc(O)cc2)oc2cc(O)cc(O)c12 [Apigenin] | 1.7 | 0.4524 | 0.0285 10^6 |  |  |  |
| COc1ccc(-c2coc3cc(O)ccc3c2=O)cc1 [Formononetin] | 2.8 | 0.6866 | 0.0147 10^6 |  |  |  |
| COc1ccc(-c2oc3cc(O)cc(O)c3c(=O)c2O)cc1 [Kaempferide] | 2.2 |  |  |  |  |  |
| O=c1c(O)c(-c2ccc(O)c(O)c2)oc2cc(O)cc(O)c12 [Quercetin] | 1.5 | 1.0614 | 0.0477 10^6 |  |  |  |
| O=C1c2c(O)cc(O)cc2O[C@H](c2cc(O)c(O)c(O)c2)[C@H]1O [Dihydromyricetin] | 1.1 | 1.2262 | 0.0470 10^6 |  |  |  |
| O=c1c(-c2ccc(O)cc2)coc2cc(O)cc(O)c12 [Genistein] | 2.7 | 1.3911 | 0.0537 10^6 |  |  |  |
